# Measured values published in patent US11510928B2, “Use of mirtazapine in the treatment of inflammatory disorders, autoimmune disease and PBC” (UTI Limited Partnership, priority 2017, dated 2022).
# What was measured:
# [1] = tested on: hepatic CXCL10/IP-10, CXCL9/MIG, ICAM-1 and VCAM-1 expression; test: Immunohistochemistry of liver sections after mirtazapine treatment; assay type: in vivo, mouse
# Method: Male 8-10 week old C57BL/6 mice (Jackson Labs, Bar Harbor, Me.) were used. All procedures were approved by the University of Calgary Animal Care Committee (protocol numbers AC14-0129 and AC14-0128) and were performed in accordance with the guidelines of the Canadian Council on Animal Care. To delineate the impact of mirtazapine treatment upon liver immune cell numbers and phenotype, and upon cytokine/chemokine networks within the liver, mice were treated with mirtazapine 1-20 mg/kg intraperitoneally^13-15. Mirtazapine was suspended in 1% aqueous solution of Tween 80, whereas the control group received 1% aqueous solution of Tween 80. Blood and liver samples were collected 5 hours post-mirtazapine treatment (or 16 hours post-Con A treatment). The detailed experimental protocols, lists of antibodies and reagents used, flow cytometry gating, and immune cell phenotyping strategies, are described herein. Hepatic CXCL10/IP-10, CXCL9/MIG, ICAM-1 and VCAM-1 expression were determined using immunohistochemistry, as previously described. Briefly, following initial deparaffinization and rehydration of tissue sections, antigen retrieval was performed in lx Citrate buffer, PH 6.0 (Abcam) for IP-10/CXCL9 and MIG/CXCL9, or in 1X EDTA buffer pH 8.0 for ICAM1 and VCAM-1. In all cases slides were incubated in antigen retrieval buffer at 95-100° C. for 20 minutes. […] This was followed by incubation with biotinylated rabbit anti-goat, goat-anti rat or goat anti-rabbit secondary antibodies (at 1:150) for 1 hour at room temperature (Vector Labs). Negative staining controls were performed by omission of primary antibody, or by omission of both primary and secondary antibodies. […] This was followed by incubation with Vectastain Elite ABC kit (Vector Laboratories) for 30 min at room temperature. Color was developed with Nova Red Chromogen (ImmPACT NovaRED Peroxidase Substrate, Vector Lab, Burlingame, Calif.), after which sections were counterstained with hematoxylin (EMD Millipore). Mounted slides were converted to virtual slides with a BX61 VS virtual microscopy system equipped with an XC10 camera and VS ASW software (Olympus) (original magnification ×400). For ICAM-1, VCAM1, CXCL9/Mig, and CXCL10/IP10 expression, all scanned virtual slides of the sections were examined in a blinded fashion, and expression patterns evaluated and described.
# circulating TNFα = details: patients with major depressive disorder; cited from earlier work
structure (smiles),measurement,setting,value
CN1CCN2c3ncccc3Cc3ccccc3C2C1 (centres unmarked) [Mirtazapine],Hepatic CXCL10 expression (IHC),"[1]; hepatocytes and sinusoidal endothelium, vs vehicle",strikingly increased
same,Hepatic ICAM-1 expression (IHC),"[1]; normal liver, vs vehicle",did not notably alter ICAM-1 expression
same,Hepatic VCAM-1 expression (IHC),"[1]; normal liver, vs vehicle",enhanced VCAM-1 staining intensity in sinusoidal endothelium and a marked increase in VCAM-1 expression intensity in sinusoidal immune cells
same,Hepatic CXCL9 staining (IHC),[1]; vs vehicle treated mice,increased CXCL9 staining mainly within hepatocytes
same,Circulating TNFα levels,circulating TNFα,increased circulating TNFα levels
